Reference: patent publication US12551573B2, “Compositions and methods for the targeting of PCSK9” (Scribe Therapeutics Inc., priority 2022, dated 2026)

Experiments:
[1] = test system: human PCSK9 locus; test: Secreted PCSK9 by ELISA (normalized to total cell count) in Huh7 cells transfected with mRNA and gRNA; type: cell-based; settings: paired with LTRP5-ADD-ZIM3 mRNA, Huh7 cells, 6 days post-transfection; for Secreted PCSK9: normalized to total cell count; for Percent reduction in PCSK9 secretion: relative to non-targeting gRNA control; for Average percent reduction in PCSK9 secretion: averaged from the two doses
Procedure, shortened: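 Huh7 cells were transfected with CasX or epigenetic-editor mRNA plus PCSK9- or B2M-targeting gRNA (scaffold 316). In one screen, LTRP5-ADD-ZIM3 mRNA:gRNA was given at 50:25 or 25:12.5 ng by Lipofectamine 3000. Secreted PCSK9 was measured by ELISA in supernatant 4-87 days post-transfection and normalized to total cell count.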

[2] = test system: human PCSK9 locus; test: RNA-seq: normalized PCSK9 read counts (log2FC) in transfected Huh7 cells; type: cell-based; settings: mRNA + gRNA scaffold 316 (v1), 6 and 26 days post-transfection, vs untreated naive
Description: (§1) Seeded Huh7 cells were transfected with mRNA encoding a catalytically-active CasX 676, dXR1, or LTRP5-ADD-ZIM3 and a gRNA with scaffold 316 and a spacer targeting the PCSK9 locus. Cells were harvested at 6 and 26 days post-transfection and subsequently lysed and stored in DNA/RNA Shield (Zymo Research). As an additional control, untreated, naïve cells were also harvested. The collected samples were subjected to gDNA/RNA extraction using the Quick-DNA/RNA Miniprep Plus kit (Zymo Research). RNA samples were used for total RNA sequencing (RNA-seq), which was performed by a third-party. Raw FASTQ files were received and processed with FASTQC, and adapters were trimmed using Trim Galore. Transcript expression was then quantified against the hg38 genome using Salmon to generate normalized counts for each gene (transcripts per million, or TPM). Differential expression analysis was performed using DESeq2. Genes with fewer than 10 counts in all samples were omitted from analysis, and all pairwise comparisons (e.g., differential gene expression analyses between untreated and treated conditions at the two individual timepoints) were done with significance thresholds of |log 2FC|>2 and adjusted p-value<0.001.

[3] = test system: Huh7 cells; test: RNA-seq: differentially regulated off-target genes in transfected Huh7 cells; type: cell-based, human; settings: 6 and 26 days, |log2FC|>2 and adjusted p-value<0.001, vs untreated naive
Description: as §1

[4] = test system: mouse PCSK9 locus; test: Intracellular PCSK9 staining by flow cytometry in Hepa1-6 cells lipofected with mRNA and gRNA; type: cell-based; settings: for permanence of PCSK9 silencing by spacer: paired with LTRP1-ZIM3 mRNA, through day 25
Description: Seeded Hepa1-6 cells treated with the NATE™ inhibitor were lipofected with 300 ng of mRNA encoding dXR1 or LTRP1-ZIM3 (Table 12) and 150 ng of a PCSK9-targeting gRNA (Table 14). Seven different gRNAs spanning the promoter region of the mouse PCSK9 locus were tested, in addition to a non-targeting sequence complementary to the human PCSK9 gene (Table 14). Cells were harvested at 6, 13, and 25 days after transfection to measure intracellular levels of the PCSK9 protein using an intracellular flow cytometry staining protocol. Briefly, cells were fixed using 4% paraformaldehyde in PBS, permeabilized, and stained using a mouse anti-PCSK9 primary antibody (R&D Systems®), followed by a fluorescent goat anti-mouse IgG secondary antibody (Thermo Fisher®). […] Cell populations were gated using the non-targeting gRNA as a negative control.
Seeded Hepa1-6 cells treated with the NATE™ inhibitor were lipofected with 300 ng of mRNA encoding LTRP1-ZIM3, LTRP5-ZIM3, catalytically-active CasX 491, or dCas9-ZNF10-DNMT3A/3L, and 150 ng of PCSK9-targeting gRNA (Table 14). Intracellular levels of PCSK9 protein were measured at 7, 14, 21, 36, and 71 days post-transfection using an intracellular staining protocol as described earlier for experiment #1.
Transfection of mRNA and gRNA into Hepa1-6 cells and intracellular PCSK9 staining were performed as described in Example 2. Briefly, each well of seeded Hepa1-6 cells was transfected with 300 ng of mRNA encoding LTRP5-ZIM3 or LTRP5-ADD-ZIM3 and 150 ng of PCSK9-targeting gRNA with spacer 27.88 or 27.94. Intracellular levels of PCSK9 protein were measured at various timepoints, up to day 53 post-transfection using an intracellular staining protocol as described earlier in Example 2. A non-targeting gRNA was used as an experimental control.

[5] = test system: human PCSK9 locus; test: Secreted PCSK9 by ELISA in HepG2 cells transfected with CasX 676 mRNA #2 and PCSK9-targeting gRNA; type: cell-based; settings: CasX 676 mRNA #2 + gRNA scaffold 316 (v1), two days post-transfection
Description: In vitro transcription of CasX 676 mRNA #2 (sequence listed in Table 28, below) was performed as described in Example 7, below. Guide RNAs using scaffold 316 and a PCSK9-targeting spacer were synthesized with a v1 modification profile (as discussed in Example 7). Spacers 6.1, 6.8, 6.86, 6.114, 6.197, and 6.203 (sequences listed in Table 24) were assessed for intracellular PCSK9 retention.
To determine whether use of certain PCSK9-targeting spacers would result in potential intracellular PCSK9 retention, ˜50,000 HepG2 cells were seeded per well in a 96-well plate. CasX 676 mRNA #2 was transfected into HepG2 cells with a PCSK9-targeting gRNA using Lipofectamine™. After a media change, the following were harvested two days post-transfection: 1) media supernatant to measure secreted PCSK9 protein levels by ELISA; and 2) transfected cells for western blotting analysis to evaluate intracellular PCSK9 levels. Harvested cells were subjected to whole cell lysate extraction for western blotting analysis. Briefly, extracted protein samples were resolved by SDS-PAGE followed by immunoblotting to analyze levels of pro-PCSK9 and processed PCSK9, which were quantified by densitometry. Secreted PCSK9 levels in the media supernatant were analyzed using the BioLegend® ELISA MAX™ kit following the manufacturer's instructions. […]

[6] = test system: PCSK9 protein; test: Western blot of intracellular pro-PCSK9 and processed PCSK9 in transfected HepG2 cells; type: cell-based, human; settings: CasX 676 mRNA #2 + gRNA, western blot densitometry, two days post-transfection
Description: To determine whether use of certain PCSK9-targeting spacers would result in potential intracellular PCSK9 retention, ˜50,000 HepG2 cells were seeded per well in a 96-well plate. CasX 676 mRNA #2 was transfected into HepG2 cells with a PCSK9-targeting gRNA using Lipofectamine™. After a media change, the following were harvested two days post-transfection: 1) media supernatant to measure secreted PCSK9 protein levels by ELISA; and 2) transfected cells for western blotting analysis to evaluate intracellular PCSK9 levels. Harvested cells were subjected to whole cell lysate extraction for western blotting analysis. Briefly, extracted protein samples were resolved by SDS-PAGE followed by immunoblotting to analyze levels of pro-PCSK9 and processed PCSK9, which were quantified by densitometry. Secreted PCSK9 levels in the media supernatant were analyzed using the BioLegend® ELISA MAX™ kit following the manufacturer's instructions. Naïve, untreated cells and cells transfected with CasX 676 mRNA #2 only served as two experimental controls.

[7] = test system: HBEGF locus; type: cell-based, human; settings: HEK293T; dCasX491 fusion, scaffold 174 spacer 34.28; 2 ng/ml diphtheria toxin for 48 hours

Substance | Secreted PCSK9 ([1]; 25 ng mRNA:12.5 ng gRNA) [ng/mL] | Percent reduction in PCSK9 secretion ([1]; 25 ng mRNA:12.5 ng gRNA) [%] | Secreted PCSK9 ([1]; 50 ng mRNA:25 ng gRNA) [ng/mL] | Percent reduction in PCSK9 secretion ([1]; 50 ng mRNA:25 ng gRNA) [%] | Average percent reduction in PCSK9 secretion [1] [%] | PCSK9 expression (RNA-seq) [2] | number of differentially regulated off-target genes [3] | other results
AGGGUGUGGGUGCUUGACGC (listed as RNA, chemistry not given here) [spacer 6.154, Promoter] | 24.48 | 65.64 | 6.87 | 91.65 | 78.64 | durably repress PCSK9 expression through day 26 | higher number of differentially regulated off-target genes | 
AUGGUAGGCACAAGCUCAGC (listed as RNA, chemistry not given here) [spacer 6.133, Promoter] | 42.13 | 40.86 | 29.45 | 64.21 | 52.53 | durably repress PCSK9 expression through day 26 | lowest number of differentially regulated off-target genes | 
CACUGAAUAGCGCAGCCGCA (listed as RNA, chemistry not given here) [spacer 6.167, Intron 1] | 66.61 | 6.51 | 39.55 | 51.93 | 29.22 | durably repress PCSK9 expression through day 26 | higher number of differentially regulated off-target genes | 
CCCCUCUUAAUCCCCACUCC (spacer within chemically modified full gRNA with 2'-OMe and phosphorothioate ends, further chemistry not given here) [spacer 27.94, mouse PCSK9] |  |  |  |  |  |  |  | knockdown of intracellular PCSK9 ([4]; 300 ng LTRP1-ZIM3 mRNA + 150 ng gRNA (scaffold 174, v1), day 6): > 80%; permanence of PCSK9 silencing by spacer [4]: strongest permanence in silencing PCSK9; durability of PCSK9 repression by spacer ([4]; paired with LTRP5-ZIM3 or LTRP5-ADD-ZIM3, day 53): more durable repression than use of spacer 27.88 by day 53; durable PCSK9 knockdown ([4]; third-party-produced mRNA paired with gRNAs containing various spacers, up to day 71): highest level of PCSK9 repression
CGCUACCUGCCUAAACUUUG (spacer within chemically modified full gRNA with 2'-OMe and phosphorothioate ends, further chemistry not given here) [spacer 27.88, mouse PCSK9] |  |  |  |  |  |  |  | permanence of PCSK9 silencing by spacer [4]: strongest permanence in silencing PCSK9
GAGGAGGACGGCCUGGCCGA (listed as RNA, chemistry not given here) [spacer 6.1, Exon 1] | 32.86 | 53.88 | 18.21 | 77.86 | 65.87 |  |  | reduction in secreted PCSK9 levels compared to cells transfected with CasX 676 mRNA only [5]: ~50%; intracellular pro-PCSK9 / intracellular protein levels [6]: did not result in substantially increased pro-PCSK9 levels
ZIM3: human ZIM3 KRAB repressor domain, SEQ ID NO: 128 [reference compound] |  |  |  |  |  |  |  | log 2 (fold change) of abundance before and after selection [7]: 1.7787
standard ZNF10: human ZNF10 KRAB repressor domain, SEQ ID NO: 129 [reference compound] |  |  |  |  |  |  |  | log 2 (fold change) of abundance before and after selection [7]: 1.3637
